# Assay: Stroke statin response (SSR) in the CARE pravastatin trial: pravastatin-treated versus placebo-treated, by SNP genotype
# Format: in vivo, human
# Settings: for HR (hazard ratio for stroke, pravastatin vs placebo): rs10757274 (hCV26505812), mode GEN, genotype AA, placebo = ref
# Excerpt: (hCV26505812) for association with SSR in CARE (Table 37) and PROSPER (Table 38), including both unadjusted and adjusted analyses (adjusted for factors such as age, gender, smoking status, hypertension, diabetes, BMI, and LDL and HDL levels). Table 37 provides results in CARE, and Table 38 provides results in PROSPER (whether each analysis is unadjusted or adjusted is indicated in the “adjust” column in Table 37, or by “unadj” and “adj” column labels in Tables 38). With respect to Tables 22-32 and 37-38, the columns labeled “Genotype” (in Tables 22-28 and 37), “Geno_Placebo” (in Tables 29-30 and 38), and “Geno_Resp” (in Tables 31-32 and 38) indicate the genotype which the given stroke risk or SSR results correspond to. […] See Example Six below for further information relating to Tables 22-32 and 37-38. […] As used herein, the term “benefit” (with respect to a preventive or therapeutic drug treatment) is defined as achieving a reduced risk for a disease that the drug is intended to treat or prevent (e.g., stroke) by administrating the drug treatment, compared with the risk for the disease in the absence of receiving the drug treatment (or receiving a placebo in lieu of the drug treatment) for the same genotype. The term “benefit” may be used herein interchangeably with terms such as “respond positively” or “positively respond”. For stroke risk and statin response associations based on samples from the CARE and PROSPER trials described herein, stroke risk is assessed by comparing the risk of stroke for a given genotype with the risk of stroke for a reference genotype either in the placebo arm of the trial or in the whole study population of the trial, and statin response is assessed by comparing the risk of stroke in the pravastatin arm of the trial with the risk of stroke in the placebo arm of the trial for the same genotype. […] In CARE, SNPs were analyzed for association with stroke risk or SSR. […] Also in the CARE and PROSPER trials, the chromosome 9p21 SNP […] (hCV26505812) was analyzed further for association with SSR, including unadjusted and adjusted analysis. Adjusted analysis in CARE (Table 37) was adjusted for age, gender, smoking status, hypertension, diabetes, body mass index (BMI), and LDL and HDL levels, and adjusted analysis in PROSPER (Table 38) was adjusted for country, gender, age, LDL, HDL, smoking status (current vs. past or never), history of hypertension, and diabetes. Table 37 provides results in CARE, and Table 38 provides results in PROSPER (whether each analysis is unadjusted or adjusted is indicated in the “adjust” column in Table 37, or by “unadj” and “adj” column labels in Tables 38). All the p-values (including Pint values) provided in Tables 37-38 are two-sided p-values.
structure (smiles),measurement,setting,value
CC[C@H](C)C(=O)O[C@H]1C[C@H](O)C=C2C=C[C@H](C)[C@H](CC[C@@H](O)C[C@@H](O)CC(=O)O)[C@H]21 [pravastatin],"HR (hazard ratio) for stroke events, pravastatin-treated versus placebo-treated","heterozygous carriers of SNP rs10757274 (chromosome 9p21), adjusted for traditional risk factors",0.61
same,"HR (hazard ratio for stroke, pravastatin vs placebo)","adjusted (age, male, current smoking, hypertension, diabetes, BMI, baseline LDL, HDL)",0.92
same,"HR (hazard ratio for stroke, pravastatin vs placebo)",unadjusted,0.85
same,EVENTS (number of stroke events),"rs10757274, adjusted analysis, mode REC, genotype GA + AA, pravastatin arm, total 1018",47

# Reference: patent publication US11401555B2, “Genetic polymorphisms associated with stroke, methods of detection and uses thereof” (CELERA CORPORATION, priority 2008, dated 2022)
